Assay results published in paper PMC11212559 (Emerging Microbes & Infections, 2024).
pKd: −log10 of the molar value.

Target: E1CTD-E12 complex (Monkeypox virus Zaire-96-I-16, UniProt Q8V4Y7)
Assay: biochemical

C[S+](CC[C@H](N)C(=O)O)C[C@H]1O[C@@H](n2cnc3c(N)ncnc32)[C@H](O)[C@@H]1O (stereo partly shown) [SAM]
pKd: 5.41
